# Experimental data published in patent publication US20260083865A1, “PROSTATE SPECIFIC MEMBRANE ANTIGEN (PSMA) LIGANDS AND USE THEREOF” (priority 2022, published 2026).
# Like-named read-outs stand apart in the source and are kept apart here. Numbered stars: 1 amine (or outer) side, 2 acyl side, 3 side chain; on linkers, the order of the positions; unused ones are H or OH. Bridge positions count the residues as written; N and C are the ends. Square brackets hold non-standard residues; d marks the D form. Peptide text beside a SMILES is read from it. * marks the point of attachment. X3 = O=C(O)CN1CCN(CC(=O)O)CCN(CC(=O)NCCCOCCOCCOCCCN*)CCN(CC(=O)O)CC1; DOTA = O=C(O)CN1CCN(CC(=O)O)CCN(CC(=O)*)CCN(CC(=O)O)CC1; Arg(Me2a) = CN(C)C(=N)NCCC[C@H](N)C(=O)O; Phe(4-Cl) = N[C@@H](Cc1ccc(Cl)cc1)C(=O)O; NMeR = CN[C@@H](CCCNC(=N)N)C(=O)O; X1 = O=C(CC1CCN([*:1])CC1)[*:2]; Lys(Me) = CNCCCC[C@H](N)C(=O)O; αMeD = C[C@](N)(CC(=O)O)C(=O)O; Suc = O=C(CCC(=O)[*:2])[*:1]; Tle = CC(C)(C)[C@H](N)C(=O)O; Isovaleryl = CC(C)CC(=O)*; Nle = CCCC[C@H](N)C(=O)O; Aib = CC(C)(N)C(=O)O
# Legend:
# [1] = biological target: T1, PSMA-expressing C4-2 cells (Homo sapiens, UniProt Q04609); assay: FACS binding assay (competition with 50 nM PSM-0183); settings: read-out: pIC50 [C4-2] CAT (converted)
# T1 construct: PSMA-expressing C4-2 cells (ATCC, Cat. No. CRL-3314) were cultured in RPMI-1640; host or cells: C4-2 cells
# T1 sequence (Q04609 whole entry): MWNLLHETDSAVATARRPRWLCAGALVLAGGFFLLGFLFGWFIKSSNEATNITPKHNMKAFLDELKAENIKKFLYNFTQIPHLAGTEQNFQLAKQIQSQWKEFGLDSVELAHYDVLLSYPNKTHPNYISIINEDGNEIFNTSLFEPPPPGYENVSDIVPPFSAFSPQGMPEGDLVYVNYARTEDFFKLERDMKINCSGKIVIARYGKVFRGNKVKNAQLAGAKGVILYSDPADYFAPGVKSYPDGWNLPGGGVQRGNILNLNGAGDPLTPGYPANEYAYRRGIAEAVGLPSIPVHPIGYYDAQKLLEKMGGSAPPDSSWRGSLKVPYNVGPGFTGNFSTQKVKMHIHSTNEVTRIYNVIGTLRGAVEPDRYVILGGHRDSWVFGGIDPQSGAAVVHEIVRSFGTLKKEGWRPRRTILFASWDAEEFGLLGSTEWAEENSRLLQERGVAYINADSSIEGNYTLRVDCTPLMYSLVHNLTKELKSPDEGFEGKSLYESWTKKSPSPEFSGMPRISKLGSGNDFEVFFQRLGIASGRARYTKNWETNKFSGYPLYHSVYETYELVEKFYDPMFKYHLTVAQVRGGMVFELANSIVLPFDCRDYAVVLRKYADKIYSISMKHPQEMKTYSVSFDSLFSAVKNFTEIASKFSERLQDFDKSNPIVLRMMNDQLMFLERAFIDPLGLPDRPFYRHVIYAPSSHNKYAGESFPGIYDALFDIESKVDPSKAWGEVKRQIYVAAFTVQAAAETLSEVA
# Outline: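 C4-2 cells were incubated 1 h at 4 °C with 50 nM AF488-labelled peptide PSM-0183 plus increasing test compound concentrations, then washed twice in ice-cold buffer. Median fluorescence in the AF488 channel was read by flow cytometry. IC50/pIC50 was derived by 4PL fitting of MFI versus concentration.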
# [2] = biological target: T2, Fc-fusion protein of human PSMA (hPSMA-Fc) (Homo sapiens, UniProt Q04609); assay: Surface plasmon resonance assay (Biacore T200, single cycle kinetic); assay type: binding; settings: hPSMA-Fc, 25° C., read-out: pKD CAT (converted)
# T2 construct: purchased Acro Biosystems PSA-H5264
# T2 sequence (Q04609 44-750 limits assumed): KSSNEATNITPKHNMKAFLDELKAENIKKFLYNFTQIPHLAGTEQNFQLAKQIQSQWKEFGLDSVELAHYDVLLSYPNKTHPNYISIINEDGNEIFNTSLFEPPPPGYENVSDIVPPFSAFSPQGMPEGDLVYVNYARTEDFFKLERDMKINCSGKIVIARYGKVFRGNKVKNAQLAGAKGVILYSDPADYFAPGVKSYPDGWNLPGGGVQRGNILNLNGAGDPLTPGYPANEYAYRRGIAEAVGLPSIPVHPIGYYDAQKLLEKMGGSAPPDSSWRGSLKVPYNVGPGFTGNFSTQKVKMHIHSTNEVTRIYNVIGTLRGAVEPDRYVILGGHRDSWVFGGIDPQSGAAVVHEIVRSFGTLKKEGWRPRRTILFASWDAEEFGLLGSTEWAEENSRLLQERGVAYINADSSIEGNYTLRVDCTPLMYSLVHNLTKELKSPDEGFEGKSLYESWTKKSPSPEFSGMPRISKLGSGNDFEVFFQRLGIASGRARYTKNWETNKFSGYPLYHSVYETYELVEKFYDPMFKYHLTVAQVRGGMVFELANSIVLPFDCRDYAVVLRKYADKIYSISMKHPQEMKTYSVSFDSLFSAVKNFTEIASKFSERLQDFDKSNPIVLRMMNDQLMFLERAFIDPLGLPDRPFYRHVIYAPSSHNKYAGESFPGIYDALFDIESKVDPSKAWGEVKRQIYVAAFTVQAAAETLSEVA
# Outline: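 hPSMA-Fc was captured (~1000 RU) on an Fc-binding-peptide CM5 chip, and compounds were run in single cycle kinetic mode at 25° C in HBST with 0.1% DMSO. Double-blank-corrected sensorgrams were fitted to a 1:1 Langmuir model to give KD, reported as pKD.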
# [3] = FACS binding, PSMA-expressing C4-2 cells, pIC50 category
# [4] = FACS binding, C4-2 cells, competition with 50 nM PSM-0183, category
# [5] = SPR, single cycle kinetic, category
"IC50 [1, 4] [nM]","Kd [2, 5] [nM]",SMILES,also measured
–,–,"CC(C)CC(=O)NC(C)(C)C(=O)N[C@@H](Cc1ccccc1)C(=O)N[C@H]1CSSC[C@@H](C(=O)N[C@H](C(=O)N[C@H](C(=O)N[C@H](CCCCNC(=O)CN2CCN(CC(=O)O)CCN(CC(=O)O)CCN(CC(=O)O)CC2)C(N)=O)[C@@H](C)O)C(C)(C)C)NC(=O)[C@H](CC(N)=O)NC(=O)C(C)(C)NC(=O)[C@H](CCCNC(=N)N)NC(=O)[C@H](CCCCN)NC1=O [PSM-0292, Iva-Aib-Phe-[Cys-Lys-Arg-Aib-Asn-Cys]-Tle-Thr-lys(DOTA)-NH2] (Isovaleryl-[Aib]FCKR[Aib]NC[Tle]T[dK](DOTA)-NH2; disulfide 3-8)","IC50 [1, 3]: < 200 nM; Kd ([2]; PSMA SPR assay, pKD category): 12.6 to 126 nM"
< 200,< 12.6,"CNCCCC[C@@H]1NC(=O)[C@@H](NC(=O)[C@H](Cc2ccc(Cl)cc2)NC(=O)C(C)(C)NC(=O)[C@@H](NC(=O)CC2CCN(C(=O)CN3CCN(CC(=O)O)CCN(CC(=O)O)CCN(CC(=O)O)CC3)CC2)[C@@H](C)O)CSSC[C@@H](C(=O)N[C@H](C(=O)N[C@H](C(N)=O)[C@@H](C)O)C(C)(C)C)NC(=O)[C@H](CC(N)=O)NC(=O)C(C)(C)NC(=O)[C@H](CCCNC(=N)N(C)C)NC1=O [PSM-0247, DOTA-Cmp-Thr-Aib-Pcf-[Cys-Lys(Me)-RMe2-Aib-Asn-Cys]-Tle-Thr-NH2] ({DOTA}-[X1]T[Aib][Phe(4-Cl)]C[Lys(Me)][Arg(Me2a)][Aib]NC[Tle]T-NH2; disulfide 5-10)",–
< 200,< 12.6,"CCCC[C@@H]1NC(=O)[C@@H](NC(=O)[C@H](Cc2ccc(Cl)cc2)NC(=O)C(C)(C)NC(=O)[C@@H](NC(C)=O)[C@@H](C)O)CSSC[C@@H](C(=O)N[C@H](C(=O)N[C@H](C(N)=O)[C@@H](C)O)C(C)(C)C)NC(=O)[C@H](CC(N)=O)NC(=O)C(C)(C)NC(=O)[C@H](CCCNC(=N)N)NC1=O [PSM-0205, Ac-Thr-Aib-Pcf-[Cys-Nle-Arg-Aib-Asn-Cys]-Tle-Thr-NH2] (Ac-T[Aib][Phe(4-Cl)]C[Nle]R[Aib]NC[Tle]T-NH2; disulfide 4-9)",–
–,–,"CCCC[C@H](NC(=O)[C@@H]1CSSC[C@H](NC(=O)[C@H](Cc2ccccc2)NC(=O)[C@H](C)NC(=O)[C@@H](NC(=O)CCC(=O)NCCCOCCOCCOCCCNC(=O)CN2CCN(CC(=O)O)CCN(CC(=O)O)CCN(CC(=O)O)CC2)[C@@H](C)O)C(=O)N[C@@H](CCCCN)C(=O)N[C@@H](CCCNC(=N)N)C(=O)N[C@@H](C)C(=O)N[C@@H](CC(N)=O)C(=O)N1)C(=O)N[C@H](C(=O)N[C@@H](CC(=O)O)C(N)=O)[C@@H](C)O [PSM-0504, DOTA-Ttds-Thr-Ala-Phe-[Cys-Lys-Arg-Ala-Asn-Cys]-Nle-Thr-Asp-NH2] ({X3-Suc}-TAFCKRANC[Nle]TD-NH2; disulfide 4-9)","IC50 ([1]; pIC50 category of FACS binding, C4-2 cells): 200 to 1260 nM; Kd ([2]; pKD category for PSMA SPR activity assay): 12.6 to 126 nM"
–,–,"C[C@@H](O)[C@H](NC(=O)[C@@H](NC(=O)[C@@H]1CSSC[C@H](NC(=O)[C@H](Cc2ccc(Cl)cc2)NC(=O)[C@](C)(CC(=O)O)NC(=O)[C@@H](NC(=O)CC2CCN(C(=O)CN3CCN(CC(=O)O)CCN(CC(=O)O)CCN(CC(=O)O)CC3)CC2)[C@@H](C)O)C(=O)N[C@@H](CCCCN)C(=O)N[C@@H](CCCNC(=N)N)C(=O)NC(C)(C)C(=O)N[C@@H](CC(N)=O)C(=O)N1)C(C)(C)C)C(N)=O [PSM-0346, DOTA-Cmp-Thr-Amd-Pcf-[Cys-Lys-Arg-Aib-Asn-Cys]-Tle-Thr-NH2] ({DOTA}-[X1]T[αMeD][Phe(4-Cl)]CKR[Aib]NC[Tle]T-NH2; disulfide 5-10)","IC50 [1, 3]: 200 to 1260 nM; Kd ([2]; PSMA SPR assay, pKD category): 126 to 501 nM"
200 to 1260,126 to 501,"CC(=O)N[C@H](C(=O)NC(C)(C)C(=O)N[C@@H](Cc1ccccc1)C(=O)N[C@H]1CSSC[C@@H](C(=O)N[C@H](C(=O)N[C@H](C(N)=O)[C@@H](C)O)C(C)(C)C)NC(=O)[C@H](CC(N)=O)NC(=O)C(C)(C)NC(=O)[C@H](CCCNC(=N)N)N(C)C(=O)[C@H](CCCCN)NC1=O)[C@@H](C)O [PSM-0235, Ac-Thr-Aib-Phe-[Cys-Lys-Nmr-Aib-Asn-Cys]-Tle-Thr-NH2] (Ac-T[Aib]FCK[NMeR][Aib]NC[Tle]T-NH2; disulfide 4-9)",–
> 3160,> 501,"C[C@@H]1NC(=O)[C@H](CCCNC(=N)N)NC(=O)[C@H](CCCCN)NC(=O)[C@@H](NC(=O)[C@H](Cc2ccccc2)NC(=O)[C@H](C)NC(=O)[C@@H](NC(=O)CCC(=O)NCCCOCCOCCOCCCNC(=O)CN2CCN(CC(=O)O)CCN(CC(=O)O)CCN(CC(=O)O)CC2)[C@@H](C)O)CSSC[C@@H](C(N)=O)NC(=O)[C@H](CC(N)=O)NC1=O [PSM-0201, DOTA-Ttds-Thr-Ala-Phe-[Cys-Lys-Arg-Ala-Asn-Cys]-NH2] ({X3-Suc}-TAFCKRANC-NH2; disulfide 4-9)",–
